The source of these data is patent US20240092779A1, “USP1 INHIBITORS AND USES THEREOF” (Zentaur Therapeutics USA Inc., priority 2022, published 2024).

The test system of experiment [1] is MDA-MB-436 cells. The experiment in a line: CTG Protocol (MDA-MB-436 GI50), antiproliferative activity. In kind it is cell-based, human. To be noted: Homo sapiens, 168 h; MDA-MB-436 cells (BRCA1 mutation), 7-day incubation, CellTiter-Glo. How it is done: CTG Protocol (MDA-MB-436 GI50)
Antiproliferative activity of USP1 inhibitors was determined using breast cancer cell line MDA-MB-436 that harbors BRCA1 mutation. MDA-MB-436 cells (ATCC, HTB-130) was seeded with a seeding density of 1000 cells per well and 95 μL DMEM medium (Gibco, 10566016) into 96-well cell plates (Corning, 3610), and incubated overnight at 37° C. and 5% CO2. Compounds were solubilized in DMSO (Solarbio, D8371) as 10 mM stock solution, and then series diluted (3 folds) with DMSO for 9-point dose-response testing. The resulted series dilutions were then jump-diluted 50-fold by cell culture medium to afford the 20×stock solutions (containing 2% DMSO). Treatment was initiated by adding 5 μL of 20×stock solution to the assay plate and incubated at 37° C. and 5% CO2. At the end of 7-day incubation, cell assay plates were removed from incubation and equilibrated to room temperature (20 min). Then 100 μL of CellTiter-Glo (Promega, G9243) reagent, prepared per manufacturer's protocol, was added to each well, and the resulted plates were centrifuged 1,000 rpm for 1 minute, incubated at room temperature in the dark for 20 minutes, sealed with Perkin Elmer sticky film, and the luminescence signal read by Envision (Perkin Elmer).
Data analysis • a) % Inhibition was calculated using following equation: […]
X: compound concentration; Y: % Inhibition
(§1) Certain compounds were tested in the assays.

Experiment [2] concerns HCC1806 Ub-PCNA (USP1). In words: USP1 Western Blot Protocol (HCC1806 Ub-PCNA). It counts as cell-based. To be noted: Homo sapiens, HCC1806 cells, 4 hours.
Source text: USP1 Western Blot Protocol (HCC1806 Ub-PCNA)
USP1 is a deubiquitinase that catalyze the hydrolysis of iso-peptide bond between ubiquitin and the substrate proteins. Inhibition of USP1 activity results in accumulation of mono-ubiquitinated substrate such as Ub-PCNA. A cell assay was set up to determine the cellular potency of USP1 compounds by monitoring the accumulation of Ub-PCNA. The signal intensity was detected by a specific Ub-PCNA antibody through Western-blot analysis.
The assay was initiated by seeding HCC1806 cells (ATCC, CRL-2335) into 6-well plates (Corning, 3516), with a seeding density of 3×10^5 cells per well and 2 mL RPMI 1640 culture medium (Gibco, 11875119). The plates were incubated overnight at 37° C. and 5% CO2. Compounds, solubilized in DMSO (Solarbio, D8371) as 1 mM stock solution, were diluted in 4-fold steps for 5-cencentration point dose response plus a no-compound DMSO control. Diluted compounds (2 μL) were transferred into assay wells (with a final DMSO concentration of −0.1%) and the resulted assay plates incubated at 37° C. and 5% CO2 for 4 hours. After aspiration of culture medium, 100 μL of 4° C. RIPA lysis buffer (Boston BioProducts, BP-115D) supplemented with vendor recommended concentrations of protease (Roche, 4693116001) and phosphatase (Roche, 4906837001) inhibitor, was added to each well and incubated for 10 minutes on the ice. Cells were scrapped loose from the bottom of well with a scraper (Corning, 3008), transferred into a 600 μL EP tube, sonicated using Ultrasound (Qsonica, Q800R3, with 30% energy, 5-second pulse on/off cycles at 4° C., for total 2 minutes), centrifuged 13,000 rpm for 15 minutes at 4° C., and then the supernatant transferred to a new 600 μL EP tube. The total protein concentration was determined using BCA kit following vendor recommended protocol (Solarbio, PC0020-500). Loading samples were prepared by diluting the total protein concentration to 1.5 μg/μL with 5 X NuPAGE SDS loading buffer (Beyotime, P0015L) and RIPA lysis buffer, and boiling at 100° C. for 5 minutes.
15 μg protein from each sample was loaded onto NuPAGE® Novex 4-12% Bis-Tris Midi Gel, 26 W (Invitrogen, WG1403BOX) and electrophoresis was run at 80 V for 30 minutes and 120 V till the end using 1x NuPAGE® MOPS SDS Running Buffer (Novex, NP0001). The gel was then transferred to nitrocellulose membrane using the dry transfer system (iBlot 2 Transfer Stacks, nitrocellulose, D323001) with a program consisting of 20 V for 1 minute, 23 V for 4 minutes and 25 V for 2 minutes. After the membrane was blocked with 5% BSA (Solarbio, A8020) in 1X TBST (CST, 9997S) for 1 hour at room temperature, specific antibodies (Ubiquityl-PCNA antibody (CST, 13439) at 1:500 dilution, PCNA antibody (Santa Cruz, sc-56) at 1:1000 dilution, and GAPDH (CST, 5174) at 1:2000 dilution in 1 X TBST containing 1% BSA) were added and incubated at room temperature for 1.5 hours. After washing the Nitrocellulose membranes with 1 X TBST for 3 times, 10 minutes each time at room temperature, fluorescently labeled secondary antibodies (anti-rabbit IgG, Licor, 926-32211; anti-mouse IgG, LI-COR, 926-68070) at 1:5000 dilution in 1 X TBST containing 1% BSA were added and incubated for 1 hour at room temperature in the dark. The membranes were then rinsed with 1 X TBST and immersed in the RO water. Imaging of band intensity was acquired with Li—COR imaging system (Li—COR, Odyssey clx ES).
Percentage of USP1 inhibition (% Vehicle) was calculated by using following equation examining Ub-PCNA upregulation:
And IC50 was calculated using four-parameter logistic fitting program • Y=Bottom+(Top-Bottom)/(1+10 {circumflex over (()}(LogIC50−X)*Hill Slope)) • X=Log of dose or concentration
as §1
(In general: A western blot detects proteins with antibodies after separation by electrophoresis.)

For `COc1ncnc(C2CC2)c1-c1ncc2cc(-c3nnc(C)o3)c(=O)n(Cc3ccc(-c4nc(C(F)(F)F)cn4C4CC4)cc3)c2n1` [Compound I-154], the GI50 (usually the concentration at which growth is held to half of that of the control) in experiment [1] fell in the range of 10 to 100 nM. The half-inhibitory concentration (IC50) (usually the midpoint of a concentration-inhibition curve) in experiment [2] lay in the range of 10 to 100 nM.

In experiment [1], `COc1ncnc(C2CC2)c1-c1ncc2cc(-c3nccn3C)c(=O)n(Cc3ccc(-c4nc(C(F)(F)F)cn4C4CC4)cc3)c2n1` [Compound I-158] gave a GI50 of 10 to 100 nM. Also, in experiment [2], the IC50 fell in the range of 10 to 100 nM.

In the case of `COc1ncnc(C2CC2)c1-c1ncc2cc(-c3cnnn3C)c(=O)n(Cc3ccc(-c4nc(C(F)(F)F)cn4C4CC4)cc3)c2n1` [Compound I-159, 8-({4-[1-cyclopropyl-4-(trifluoromethyl)imidazol-2-yl]phenyl}methyl)-2-(4-cyclopropyl-6-methoxypyrimidin-5-yl)-6-(3-methyl-1,2,3-triazol-4-yl)pyrido[2,3-d]pyrimidin-7-one], the GI50 in experiment [1] is 10 to 100 nM. The compound also had an IC50 in experiment [2] of less than 10 nM.

In turn, `COc1ncnc(C2CC2)c1-c1ncc2nc(-c3cn(C)cn3)c(=O)n(Cc3ccc(-c4nc(C(F)(F)F)cn4C4CC4)cc3)c2n1` [Compound I-160, 8-({4-[1-Cyclopropyl-4-(Trifluoromethyl)Imidazol-2-Yl]Phenyl}Methyl)-2-(4-Cyclopropyl-6-Methoxypyrimidin-5-Yl)-6-(1-Methylimidazol-4-Yl)Pteridin-7-One] came in with a GI50 in experiment [1] of 10 to 100 nM. For the same compound, the half-maximal inhibitory concentration (IC50) in experiment [2] was 10 to 100 nM.

`COc1ncnc(C2CC2)c1-c1ncc2cc(-c3cn(C)cn3)c(=O)n(Cc3ccc(-c4nc(C(F)(F)F)cn4C4CC4)cc3)c2n1` [Compound I-161, 8-({4-[1-cyclopropyl-4-(trifluoromethyl)imidazo]-2-yl]phenylmethyl)-2-(4-cyclopropyl-6-methoxypyrimidin-5-yl)-6-(1-methylimidazol-4-yl)pyrido[2,3-d]pyrimidin-7-one]: in experiment [1], the GI50 was 10 to 100 nM. Further, the half-inhibitory concentration (IC50) in experiment [2] is less than 10 nM.

Turning to `COc1ncnc(C2CC2)c1-c1ncc2cc(-c3cncc(F)c3)c(=O)n(Cc3ccc(-c4nc(C(F)(F)F)cn4C4CC4)cc3)c2n1` [Compound I-162], the concentration for 50% growth inhibition (GI50) in experiment [1] is 10 to 100 nM. The compound also returned an IC50 in experiment [2] of less than 10 nM.

The compound `COc1nn(C)cc1-c1cc2cnc(-c3c(OC)ncnc3C3CC3)nc2n(Cc2ccc(-c3nc(C(F)(F)F)cn3C3CC3)cc2)c1=O` [Compound I-164] registered a concentration for 50% growth inhibition (GI50) in experiment [1] of 10 to 100 nM. In addition, the concentration for half-maximal inhibition (IC50) in experiment [2] was 10 to 100 nM.

Take `COc1ncnc(C2CC2)c1-c1ncc2cc(-c3c(C)cnn3C)c(=O)n(Cc3ccc(-c4nc(C(F)(F)F)cn4C(C)C)cc3)c2n1` [Compound I-165, 2-(4-Cyclopropyl-6-Methoxypyrimidin-5-Yl)-6-(2,4-Dimethylpyrazol-3-Yl)-8-({4-[1-Isopropyl-4-(Trifluoromethyl)Imidazol-2-Yl]Phenyl}Methyl)Pyrido[2,3-d]Pyrimidin-7-One]: in experiment [1], the concentration for 50% growth inhibition (GI50) is 10 to 100 nM. The same compound gave a half-maximal inhibitory concentration (IC50) in experiment [2] of 10 to 100 nM.
